Marks after values point to notes of the source that are not given here.
Assays:
[1] = tested on: TH17 cells differentiated in-vitro; experiment: TH17 differentiation assay: inhibition of IL-17 secretion; format: cell-based; set-up: activity: dose or concentration left out as unconfirmed; conditions: Homo sapiens; for inhibition at 1 µM: IL-17 secretion; for activity: TH17 cells differentiated in-vitro, read-out: IL17 secretion (% of DMSO)
Text: CD4+ T cells were isolated using CD4+ T cell isolation kit (Miltenyi Biotech), activated with CD3/CD28 microbeads and cultured for 7-10 days in the presence of IL-1β, IL-6, IL-21, I-23 and TGFβ and test compounds. Cells cultured with DMSO or without cytokines and/or microbeads were used as negative controls.
Read out: (1) At day 7-10, the supernatants were collected and tested for soluble 1-17. (2) Cells were also harvested and stained for intra-cellular IL-17A. (3) Cells were also stained separately by Annexin/PI for cell viability. (4) Pictures of cultures were taken for each condition.

HFD rat model = experiment: High fat diet (HFD) fed rat model: steatosis, plasma/liver TG, plasma leptin; format: in vivo; conditions: HFD rats, 5 mg/kg QD
Text: Steatosis is caused by the accumulation of triglycerides (TG) in the liver, and as such, decreases in TG may represent a potential marker for activity on steatosis. The obese phenotype of HFD model is dependent on the incorporation of high dietary fat and DNL-derived fat. […] The key endpoints of this study were to evaluate the relationship between dose schedule and exposure with changes in liver steatosis score and liver TG. For these studies, male SD rats (6-8 week old) were fed a high fat diet (D124942, Research Diets Inc.) for four weeks to develop the obese phenotype and then sorted into treatment groups (N=8) based on mean body weight. […] Rosiglitazone 5 mg/kg QD was included as a positive control. Plasma and serum samples were collected weekly throughout the study. After 28 days of treatment, animals were sacrificed and liver and plasma samples were collected. Livers were fixed in formalin, processed for H&E staining, and evaluated by a pathologist specializing in NASH.
Two HFD studies were conducted. […] The second HFD study investigated the endpoints of steatosis and liver and plasma markers of lipogenesis (including TG and FFA).

HSD rat model = experiment: High-sucrose diet (HSD) fed rat model: plasma/liver TG, plasma leptin; format: in vivo; conditions: HSD rats, 5 mg/kg QD
Text: A HSD represents an alternative experimental model for obesity and steatosis. In this model, 60-70% of the caloric intake is from simple carbohydrates, and thus, the primary source of increased TG is through DNL.
Male SD rats (6-8 week old) were fed a HSD (D10001, Research Diets Inc.) for six weeks to develop the obese phenotype and then sorted into treatment groups (N=8 each) based on mean body weight.

Compound	inhibition at 1 µM [1] [%]	activity [1] [%]	other results
C[C@H]1CN(C(=O)c2ccc(-c3nc4ccc(Cl)cc4o3)cc2)CCN1C(=O)C1(O)CC1 [compound 11]	67	33	
Cn1cnc2cc(-c3ccc(C(=O)N4CCN(C(=O)C5(O)CC5)CC4)c(F)c3)ccc21 [compound 4]	85	15	
CN(CCOc1ccc(CC2SC(=O)NC2=O)cc1)c1ccccn1 (stereo not shown) [Rosiglitazone]			Plasma TG % Decrease of treatment group (mean) vs. vehicle treated HFD group (mean) (HFD rat model; Day 14): 52.5%; Plasma TG Raw Data (Mean ± SEM) (HFD rat model; Day 14): 0.48 ± 0.02 mmol/L; Plasma TG % Decrease of treatment group (mean) vs. vehicle treated HFD group (mean) (HFD rat model; Day 26): 60.0%; Plasma TG Raw Data (Mean ± SEM) (HFD rat model; Day 26): 0.46 ± 0.05 mmol/L; Liver TG % Decrease of treatment group (mean) vs. vehicle treated HFD group (mean) (HFD rat model; Day 28): 70.0%; Liver TG Raw Data (Mean ± SEM) (HFD rat model; Day 28): 17.2 ± 0.8 µmol/g; Plasma Leptin (Mean ± SEM) (HFD rat model; Day 28): 16.0 ± 1.2 ng/mL; Plasma TG % Decrease of treatment group (mean) vs. vehicle treated HSD group (mean) (HSD rat model; Day 14): 60.6%; Plasma TG Raw Data (Mean ± SEM) (HSD rat model; Day 14): 1.07 ± 0.10 mmol/L; Plasma TG % Decrease of treatment group (mean) vs. vehicle treated HSD group (mean) (HSD rat model; Day 26): 62.3%; Plasma TG Raw Data (Mean ± SEM) (HSD rat model; Day 26): 1.24 ± 0.17 mmol/L; Liver TG % Decrease of treatment group (mean) vs. vehicle treated HSD group (mean) (HSD rat model; Day 28): 41.2 * %; Liver TG Raw Data (Mean ± SEM) (HSD rat model; Day 28): 8.5 ± 1.5 µmol/g; Plasma Leptin (Mean ± SEM) (HSD rat model; Day 28): 12.6 ± 2.5 ng/mL
C[C@@H]1CN(C(=O)c2ccc(-c3nc4ccc(F)cc4o3)cc2)CCN1C(=O)C1(O)CC1 [compound 7]	66	34	
O=C(c1ccc(-c2cc(Cl)ccc2F)cc1)N1CCN(C(=O)C2(O)CC2)CC1 [compound 3]	75	25	
O=C(c1ccc(-c2nc3ccc(Cl)cc3o2)cc1)N1CCN(C(=O)C2(O)CC2)CC1 [compound 2]	79	21	
Cn1cnc2cc(-c3ccc(C(=O)N4CCN(C(=O)C5(O)CC5)CC4)cc3)ccc21 [compound 9]	76	24	
O=C(c1ccc(-c2nc3ccc(F)cc3o2)cc1F)N1CCN(C(=O)C2(O)CC2)CC1 [compound 6]	53	47	
O=C(c1ccc(-c2nc3ccc(F)cc3o2)cc1)N1CCN(C(=O)C2(O)CC2)CC1 [compound 1]	46	54	
Cn1ncc2ccc(-c3ccc(C(=O)N4CCN(C(=O)C5(N)CC5)CC4)cc3)cc21 [compound 5]	74	26	
C[C@H]1CN(C(=O)c2ccc(-c3ccc4c(c3)ncn4C)cc2F)CCN1C(=O)C1(O)CC1 [compound 8]	77	23	
